According to EP2913333A1 (priority 2014, dated 2015):

Experiments:
[1] = biological target: T1, E. feacium DltA (Enterococcus faecium, UniProt Q3XZT7); experiment: in vitro DltA activity assay (luminescence, IC50 determination); type: biochemical; settings: recombinant DltA, 30min preincubation at room temperature, 0.5mM D-Alanine, 0.5-5µM ATP; read-out: E. feacium DltA IC50
T1 sequence (Q3XZT7 1-504): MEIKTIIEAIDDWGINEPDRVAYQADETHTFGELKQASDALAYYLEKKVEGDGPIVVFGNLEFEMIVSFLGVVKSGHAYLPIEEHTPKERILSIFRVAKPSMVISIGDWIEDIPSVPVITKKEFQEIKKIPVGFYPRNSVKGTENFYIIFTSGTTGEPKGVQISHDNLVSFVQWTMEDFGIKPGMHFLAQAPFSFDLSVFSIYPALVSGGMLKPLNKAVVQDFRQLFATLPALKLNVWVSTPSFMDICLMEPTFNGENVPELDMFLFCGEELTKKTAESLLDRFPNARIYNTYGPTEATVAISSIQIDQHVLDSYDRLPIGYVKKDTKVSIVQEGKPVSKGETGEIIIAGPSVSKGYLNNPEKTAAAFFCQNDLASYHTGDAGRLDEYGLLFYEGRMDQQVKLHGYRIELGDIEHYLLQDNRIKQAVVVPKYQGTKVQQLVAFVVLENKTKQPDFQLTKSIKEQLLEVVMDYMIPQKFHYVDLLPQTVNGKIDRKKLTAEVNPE
Description: (§1) The effect of the compounds of the invention on DltA enzymes has been based on the measure of their inhibition of DltA activity in vitro. To this end, recombinant proteins DltA were expressed and purified after cloning of the genes of S. aureus, E. faecalis, E. faecium and S. agalactiae as described thereafter. The capacity of the compounds of the invention to inhibit DltA enzymatic activity was assessed using the DltA assays as described below: • The dltA gene was amplified from chromosomal DNA of S. aureus, E. faecalis, E. faecium and S. agalactiae and introduced into E. coli BL21 (Invitrogen, Carlsbad, CA) following manufacturer's instruction. Bacteria were grown at 37°C under aerobic conditions and isopropyl-beta-D-thiogalactopyranoside (IPTG) was added to 0.5-1 mM when OD600 of the bacterial culture had reached 0.5. After a further incubation for 3 hours, cells were harvested by centrifugation. Purification of the recombinant DltA protein was performed by affinity chromatography on nickel-nitrilotriacetic acid (Ni-NTA) column following manufacturer's instructions (Qiagen). Fractions containing recombinant DltA protein were adjusted to 50% glycerol and stored at -20°C until use.
(§2) The binding potency of the inhibitors against DltA enzyme was assessed by IC50 determination in an in vitro DltA activity assay. The assay buffer "AB" contained 50 mM Hepes pH8.0, 10mM MgCl2, 50mM KCI, 0.012% Triton-X100, 10mM DTT and 100nM Myelin-basic protein. The following components were added in a white polystyrene Costar plate up to a final volume of 30µL: 3µL DMSO, or inhibitor dissolved in DMSO and 27µL DltA enzyme in AB. After 30min of preincubation at room temperature, 30µL of Substrates mix in AB were added in each well to a final volume of 60µL. This reaction mixture was then composed of DltA (produced in house from S. aureus, E. faecalis, E. faecium and S. agalactiae), 0.5mM D-Alanine (Sigma), 0.5-5µM ATP (Sigma) and 0.05 u/ml inorganic pyrophosphatase (Sigma) in assay buffer. After typically 1-2hours of incubation at room temperature (conversion rate around 30%), 30µL of the revelation mix were added to a final volume of 90µL, including the following constituents at the respective final concentrations: 10000 u/ml luciferase (Sigma), 30µM D-luciferin (Sigma), 100µM N-acetylcysteamine (Aldrich). Luminescence intensity was immediately measured on a Fluostar Optima (BMG) (excitation 360nm, emission 520nm) and converted into inhibition percentages.
(§3) For compounds interfering with the luminescent signal (quenching), the same experiment without DltA enzyme was performed to allow quenching determination and correction.

[2] = biological target: T2, S. aureus DltA (Staphylococcus aureus, UniProt Q2FZW6); experiment: as above; type: biochemical
T2 construct: made in house; host or cells: E. coli BL21
T2 sequence (Q2FZW6 1-485): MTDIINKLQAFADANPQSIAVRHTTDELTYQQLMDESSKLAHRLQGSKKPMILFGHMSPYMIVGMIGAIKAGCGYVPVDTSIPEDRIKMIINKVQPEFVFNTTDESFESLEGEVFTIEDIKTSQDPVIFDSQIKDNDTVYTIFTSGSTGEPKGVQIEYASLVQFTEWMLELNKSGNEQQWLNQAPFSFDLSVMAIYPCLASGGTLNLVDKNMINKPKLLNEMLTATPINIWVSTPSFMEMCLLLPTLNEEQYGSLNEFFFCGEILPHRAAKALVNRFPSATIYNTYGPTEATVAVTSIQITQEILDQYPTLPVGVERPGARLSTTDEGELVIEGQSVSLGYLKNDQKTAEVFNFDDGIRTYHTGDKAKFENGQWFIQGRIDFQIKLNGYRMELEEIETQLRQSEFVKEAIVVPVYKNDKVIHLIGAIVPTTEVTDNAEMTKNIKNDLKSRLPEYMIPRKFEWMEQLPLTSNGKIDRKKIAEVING
Description: as §1, §2, §3

[3] = biological target: T3, S. Agalactiae DltA (Streptococcus agalactiae serotype III, UniProt Q8VM67); experiment: biochemical
T3 sequence (Q8VM67 1-511): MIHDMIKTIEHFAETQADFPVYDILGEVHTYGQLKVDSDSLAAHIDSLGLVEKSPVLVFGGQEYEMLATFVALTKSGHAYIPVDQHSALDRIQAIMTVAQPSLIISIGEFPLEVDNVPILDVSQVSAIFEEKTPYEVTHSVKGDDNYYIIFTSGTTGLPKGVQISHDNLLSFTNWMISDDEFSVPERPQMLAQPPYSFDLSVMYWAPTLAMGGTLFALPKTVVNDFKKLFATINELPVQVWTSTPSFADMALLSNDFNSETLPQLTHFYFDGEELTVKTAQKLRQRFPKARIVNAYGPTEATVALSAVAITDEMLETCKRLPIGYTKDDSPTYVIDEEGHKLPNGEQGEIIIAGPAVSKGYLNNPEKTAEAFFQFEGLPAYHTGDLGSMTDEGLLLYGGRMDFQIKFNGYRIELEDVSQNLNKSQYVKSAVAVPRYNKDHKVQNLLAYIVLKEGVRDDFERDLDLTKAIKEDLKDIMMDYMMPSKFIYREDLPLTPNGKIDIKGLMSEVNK
Description: as §1, with “To” for “The effect of the compounds of the invention on DltA enzymes has been based on the measure of their inhibition of DltA activity in vitro. To”
as §2, §3

[4] = biological target: T4, E. feacalis DltA (Enterococcus faecalis, UniProt Q830N0); experiment: biochemical
T4 sequence (Q830N0 1-506): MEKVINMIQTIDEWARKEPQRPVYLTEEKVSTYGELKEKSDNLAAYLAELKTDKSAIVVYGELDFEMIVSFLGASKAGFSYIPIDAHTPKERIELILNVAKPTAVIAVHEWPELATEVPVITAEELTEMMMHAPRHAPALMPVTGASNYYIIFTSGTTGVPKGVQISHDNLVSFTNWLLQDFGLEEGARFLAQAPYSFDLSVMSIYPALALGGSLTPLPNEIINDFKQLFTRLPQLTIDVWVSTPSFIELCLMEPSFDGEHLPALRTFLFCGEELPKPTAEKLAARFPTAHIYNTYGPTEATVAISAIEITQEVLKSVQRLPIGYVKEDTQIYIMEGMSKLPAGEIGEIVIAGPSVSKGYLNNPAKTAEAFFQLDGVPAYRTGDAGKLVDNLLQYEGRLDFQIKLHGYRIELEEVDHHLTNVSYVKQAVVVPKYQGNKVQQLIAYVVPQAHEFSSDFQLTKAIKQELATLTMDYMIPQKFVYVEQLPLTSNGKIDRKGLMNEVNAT
Description: as §1, with “To” for “The effect of the compounds of the invention on DltA enzymes has been based on the measure of their inhibition of DltA activity in vitro. To”
as §2, §3

| Structure (SMILES) | IC50 [1] | IC50 [2] | IC50 [3] | IC50 [4] |
| --- | --- | --- | --- | --- |
| O=c1[nH]cnc2c(-c3ccc4c(c3)ncn4C3CCCCC3)cn(CCCO)c12 [Example 67, 7-(1-Cyclohexyl-1H-benzimidazol-5-yl)-5-(3-hydroxy-propyl)-3,5-dihydro-pyrrolo[3,2-d]pyrimidin-4-one] | 930 nM | 150 nM | 3800 nM | 180 nM |
| O=c1[nH]cnc2c(-c3ccc4c(c3)ncn4C3CCCCC3)cn(CCCCCO)c12 [Example 68, 7-(1-Cyclohexyl-1H-benzimidazol-5-yl)-5-(5-hydroxy-pentyl)-3,5-dihydro-pyrrolo[3,2-d]pyrimidin-4-one] | 730 nM | 290 nM | 4500 nM | 320 nM |
| O=c1[nH]cnc2c(-c3ccc4c(c3)ncn4C3CCCCC3)cn(C3CCNCC3)c12 [Example 73, 7-(1-Cyclohexyl-1H-benzimidazol-5-yl)-5-piperidin-4-yl-3,5-dihydro-pyrrolo[3,2-d]pyrimidin-4-one] | 280 nM | 72 nM | 1000 nM | 61 nM |
| O=c1[nH]cnc2c(-c3ccc4c(c3)ncn4C3CCCCC3)cn([C@H]3CC[C@@H](CO)CC3)c12 [Example 74, 7-(1-Cyclohexyl-1H-benzimidazol-5-yl)-5-[cis-(4-hydroxymethyl-cyclohexyl)]-3,5-dihydro-pyrrolo[3,2-d]pyrimidin-4-one] | 140 nM | 150 nM | 1100 nM | 93 nM |
| O=c1[nH]cnc2c(-c3ccc4c(c3)ncn4C3CCCCC3)cn([C@H]3CCCNC3)c12 [Example 76, 7-(1-Cyclohexyl-1H-benzimidazol-5-yl)-5-(S)-piperidin-3-yl-3,5-dihydro-pyrrolo[3,2-d]pyrimidin-4-one] | 460 nM | 67 nM | 1200 nM | 69 nM |
| O=c1[nH]cnc2c(-c3ccc4c(c3)ncn4C3CCCCC3)cn(C3CCNC3)c12 (stereo not drawn) [Example 77, 7-(1-Cyclohexyl-1H-benzimidazol-5-yl)-5-pyrrolidin-3-yl-3,5-dihydro-pyrrolo[3,2-d]pyrimidin-4-one] | 510 nM | 93 nM | 1600 nM | 130 nM |
| CN(C)CCCn1cc(-c2ccc3c(c2)ncn3C2CCCCC2)c2nc[nH]c(=O)c21 [Example 80, 7-(1-Cyclohexyl-1H-benzimidazol-5-yl)-5-(3-dimethylamino-propyl)-3,5-dihydro-pyrrolo[3,2-d]pyrimidin-4-one] | 620 nM | 270 nM | 1500 nM | 55 nM |
| O=c1[nH]cnc2c(-c3ccc4c(c3)ncn4C3CCCCC3)cn(C3CCOCC3)c12 [Example 81, 7-(1-Cyclohexyl-1H-benzimidazol-5-yl)-5-(tetrahydro-pyran-4-yl)-3,5-dihydro-pyrrolo[3,2-d]pyrimidin-4-one] | 300 nM | 76 nM | 2500 nM | 170 nM |
| CC(C)N1CCC(n2cc(-c3ccc4c(c3)ncn4C3CCCCC3)c3nc[nH]c(=O)c32)CC1 [Example 82, 7-(1-Cyclohexyl-1H-benzimidazol-5-yl)-5-(1-isopropyl-piperidin-4-yl)-3,5-dihydro-pyrrolo[3,2-d]pyrimidin-4-one] | 380 nM | 56 nM | 1900 nM | 100 nM |
